Laboratory results taken from the supplement of paper PMC11061612.

Legend:
[1] = tested on: CTB-1 (B-Cell Non-Hodgkin's Lymphoma); experiment: Bliss excess, mean over the matrix (fraction); higher = more synergy
Summary of the method: (§1)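 After 24 hours at 37°C and 5% CO2 in 1536-well plates, cells in DMEM/F12 or RPMI plus 10% FBS received two-drug dose matrices for 72 hours. Viability came from CellTiter-Glo 2.0 luminescence and was scaled as inhibition, anchored at 0 by vehicle wells and at 1 by blank wells. Combination Emax is taken as the second-highest inhibition in the matrix, and Bliss excess as the observed combination effect less EA + EB − EA·EB, with EA and EB the single-agent effects.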

SH-4 (Melanoma) = experiment: as above
Summary of the method: as §1

[2] = tested on: OC-314 (Ovarian Carcinoma); experiment: as above
Summary of the method: as §1

[3] = tested on: 639-V (Bladder Carcinoma); experiment: as above
Summary of the method: as §1

[4] = tested on: RKO (Colorectal Carcinoma); experiment: as above
Summary of the method: as §1

[5] = tested on: RT-112 (Bladder Carcinoma); experiment: as above
Summary of the method: as §1

[6] = tested on: HCC-15 (Squamous Cell Lung Carcinoma); experiment: as above
Summary of the method: as §1

[7] = tested on: CAL-51 (Breast Carcinoma); experiment: as above
Summary of the method: as §1

[8] = tested on: SU-DHL-6 (B-Cell Non-Hodgkin's Lymphoma); experiment: as above
Summary of the method: as §1

[9] = tested on: RPMI-6666 (Non-Cancerous); experiment: as above
Summary of the method: as §1

[10] = tested on: CAPAN-1 (Pancreatic Carcinoma); experiment: as above
Summary of the method: as §1

[11] = tested on: LB771-HNC (Head and Neck Carcinoma); experiment: as above
Summary of the method: as §1

HMV-II (Melanoma) [12] = experiment: as above
Summary of the method: as §1

[13] = tested on: UMC-11 (Other Solid Carcinomas); experiment: as above
Summary of the method: as §1

[14] = tested on: Hs-633T (Other Solid Carcinomas); experiment: as above
Summary of the method: as §1

[15] = tested on: 8305C (Thyroid Gland Carcinoma); experiment: as above
Summary of the method: as §1

NCI-H28 (Mesothelioma) = experiment: combination Emax (second highest fraction inhibited in the dose matrix, 72 h); higher = more inhibition; extreme values may be limits of the assay
Summary of the method: as §1

[16] = tested on: EN (Endometrial Carcinoma); experiment: as above
Summary of the method: as §1

[17] = tested on: LB771-HNC (Head and Neck Carcinoma); experiment: as above
Summary of the method: as §1

HMV-II (Melanoma) [18] = experiment: as above
Summary of the method: as §1
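Throughout, for Bliss excess, mean over the matrix: after 72 h of two-drug dosing.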

SMILES	Bliss excess [1]	Bliss excess (SH-4 (Melanoma))	Bliss excess [2]	Bliss excess [3]	Bliss excess [4]	Bliss excess [5]	Bliss excess [6]	Bliss excess [7]	Bliss excess [8]	Bliss excess [9]	Bliss excess [10]	Bliss excess [11]	Bliss excess (HMV-II (Melanoma) [12])	Bliss excess [13]	Bliss excess [14]	Bliss excess [15]	combination Emax (NCI-H28 (Mesothelioma))	combination Emax [16]	combination Emax [17]	combination Emax (HMV-II (Melanoma) [18])
CC1(C)CCC(CN2CCN(c3ccc(C(=O)NS(=O)(=O)c4ccc(NCC5CCOCC5)c([N+](=O)[O-])c4)c(Oc4cnc5[nH]ccc5c4)c3)CC2)=C(c2ccc(Cl)cc2)C1 [Venetoclax] + CN(C)CCCOc1ccc(-c2ccc3ncc4c(c3c2)n(C2CCOCC2)c(=O)n4C)cn1 [AZD0156] (first compound max 1 µM, 7x7, partner max 1 µM)	-0.024	-0.0087	0.008	0.02	0.0566	-0.0232	-0.0196	0.0064	0.036	-0.0231	-0.0696	-0.0215	0.0134	-0.0004	-0.0023	-0.0626	0.193	0.426	0.124	0.289
C=CCn1c(=O)c2cnc(Nc3ccc(N4CCN(C)CC4)cc3)nc2n1-c1cccc(C(C)(C)O)n1 [AZD1775] + C[C@@H]1COCCN1C2=NC(=NC(=C2)C3(CC3)[S@](=N)(=O)C)C4=C5C=CNC5=NC=C4 [AZD6738] (first compound max 1 µM, partner max 10 µM)	-0.0464	-0.0746	0.0937	0.0455	0.0529	0.0578	0.0035	0.0981	0.0458	-0.0165	-0.0951	-0.0057	-0.0327	-0.0454	0.0309	-0.122	0.618	0.764	0.536	0.495
CN(CCO)CC[C@H](CSc1ccccc1)Nc1ccc(S(=O)(=O)NC(=O)c2ccc(N3CCC([C@@H](O)c4ccccc4-c4ccc(Cl)cc4)CC3)cc2)cc1S(=O)(=O)C(F)(F)F [AZD4320] + C1CN(CCC1(C(=O)N[C@@H](CCO)C2=CC=C(C=C2)Cl)N)C3=NC=NC4=C3C=CN4 [Capivasertib] (first compound max 1 µM, 7x7, partner max 3 µM)	-0.0277	-0.0462	-0.0007	-0.0503	-0.0191	-0.039	-0.0082	-0.0089	0.0292	0.0083	-0.0405	-0.0148	-0.0431	-0.0908	-0.0193	-0.0663	0.159	0.576	0.259	0.169
Cc1cc2ncnn2cc1Nc1ncc2c(n1)n(C1CCOCC1)c(=O)n2C [AZD7648] + C[C@@H]1COCCN1C2=NC(=NC(=C2)C3(CC3)[S@](=N)(=O)C)C4=C5C=CNC5=NC=C4 [AZD6738] (first compound max 10 µM, 7x7, partner max 10 µM)	0.0098	-0.0043	0.0565	0.0317	0.0059	0.0746	0.0093	0.0017	-0.0598	-0.0048	0.0322	0.0039	0.0134	0.0002	-0.0138	0.02	0.538	0.62	0.464	0.442
CCc1c2c(nc3ccc(O)cc13)-c1cc3c(c(=O)n1C2)COC(=O)[C@]3(O)CC [SN-38] + CN(C)CCCOc1ccc(-c2ccc3ncc4c(c3c2)n(C2CCOCC2)c(=O)n4C)cn1 [AZD0156] (first compound max 0.3 µM, 7x7, partner max 1 µM)	-0.0393	-0.0552	0.0872	0.068	0.0263	0.0988	0.16	0.0611	-0.0694	-0.0196	-0.0341	-0.031	-0.0108	0.0224	0.153	0.0088	0.307	0.157	0.0261	0.587
CCN(CCO)CCCOc1ccc2c(Nc3cc(CC(=O)Nc4cccc(F)c4)[nH]n3)ncnc2c1 [AZD2811] + O=C(c1cc(Cc2n[nH]c(=O)c3ccccc23)ccc1F)N1CCN(C(=O)C2CC2)CC1 [Olaparib] (first compound max 1 µM, 7x7, partner max 10 µM)	-0.0508	-0.0234	0.0254	0.0445	0.0655	0.0427	-0.0123	0.0272	0.0252	-0.0615	-0.0091	0.0255	-0.0302	-0.0715	0	-0.0398	0.229	0.434	0.201	0.203
C=CCn1c(=O)c2cnc(Nc3ccc(N4CCN(C)CC4)cc3)nc2n1-c1cccc(C(C)(C)O)n1 [AZD1775] + O=C(c1cc(Cc2n[nH]c(=O)c3ccccc23)ccc1F)N1CCN(C(=O)C2CC2)CC1 [Olaparib] (first compound max 1 µM, partner max 10 µM)	-0.0921	-0.0882	0.0291	0.0085	-0.0119	0.0461	-0.0004	-0.0122	-0.0222	-0.0373	-0.0123	-0.0622	-0.0279	0.0135	-0.0188	-0.0762	0.421	0.531	0.533	0.401
CC1(C)CCC(CN2CCN(c3ccc(C(=O)NS(=O)(=O)c4ccc(NCC5CCOCC5)c([N+](=O)[O-])c4)c(Oc4cnc5[nH]ccc5c4)c3)CC2)=C(c2ccc(Cl)cc2)C1 [Venetoclax] + C[C@@H](Nc1cc(F)cc(F)c1)c1cc(C(=O)N(C)C)cc2c(=O)cc(N3CCOCC3)oc12 [AZD8186] (first compound max 1 µM, 7x7, partner max 3 µM)	-0.0261	-0.0214	-0.05	0.0371	-0.049	-0.0197	0.0109	-0.0394	0.0547	0.0617	-0.0594	0.0083	0.0093	-0.0263	-0.017	-0.0423	0.115	0.422	0.283	0.263
Cc1cc2ncnn2cc1Nc1ncc2c(n1)n(C1CCOCC1)c(=O)n2C [AZD7648] + CCN(CCO)CCCOc1ccc2c(Nc3cc(CC(=O)Nc4cccc(F)c4)[nH]n3)ncnc2c1 [AZD2811] (first compound max 10 µM, 7x7, partner max 1 µM)	-0.0578	-0.0059	0.0565	0.0219	0.0369	0.0796	0.0043	0.076	0.0052	0.036	-0.0304	0	-0.0368	-0.0884	0.0211	-0.0159	0.345	0.519	0.251	0.37
Cc1c2c(nn1C)CSCc1cc(n(C)n1)CSc1cc(c3ccccc3c1)OCCCc1c(C(=O)O)n(C)c3c-2c(Cl)ccc13 [AZD5991] + Cc1cc2ncnn2cc1Nc1ncc2c(n1)n(C1CCOCC1)c(=O)n2C [AZD7648] (first compound max 1 µM, 7x7, partner max 10 µM)	-0.0345	-0.0079	0.0063	-0.005	-0.0301	-0.0298	-0.0436	-0.0529	0.0224	-0.0204	-0.0057	-0.0251	-0.067	-0.0716	-0.0097	-0.0739	0.298	0.563	0.571	0.273
COc1cccc(OCCCN)c1-c1cc(Nc2cnc(C#N)cn2)n[nH]1 [Prexasertib] + Cc1cc2ncnn2cc1Nc1ncc2c(n1)n(C1CCOCC1)c(=O)n2C [AZD7648] (first compound max 1 µM, 7x7, partner max 10 µM)	-0.0352	-0.0545	-0.0286	-0.0051	-0.0193	-0.0357	0.0328	0.0069	0.0159	-0.0261	-0.0274	-0.0088	0.0203	-0.0692	0.0201	-0.0726	0.639	0.756	0.596	0.525
CN(CCO)CC[C@H](CSc1ccccc1)Nc1ccc(S(=O)(=O)NC(=O)c2ccc(N3CCC([C@@H](O)c4ccccc4-c4ccc(Cl)cc4)CC3)cc2)cc1S(=O)(=O)C(F)(F)F [AZD4320] + CCN(CCO)CCCOc1ccc2c(Nc3cc(CC(=O)Nc4cccc(F)c4)[nH]n3)ncnc2c1 [AZD2811] (first compound max 1 µM, 7x7, partner max 1 µM)	-0.0596	-0.0236	0.156	0.0502	-0.0162	0.172	-0.0091	0.0881	0.0635	0.17	-0.0309	-0.0227	-0.0357	-0.0565	-0.0212	0.0076	0.416	0.381	0.191	0.18
